{"source": "paper PMC7094298", "about": "(Febs Letters, 2009)", "origin": "cited, not measured here", "key": {"[1]": {"tested_on": "RV and other picornaviral 3Cpro"}, "SARS-CoV 3CLpro": {"biological_target": "SARS-CoV 3CLpro (Severe acute respiratory syndrome coronavirus, UniProt P0C6X7)"}}, "note": "Entries after “also recorded” stand apart in the source; their conditions may differ."}
{"smiles": "CCOC(=O)/C=C/[C@H](C[C@@H]1CCNC1=O)NC(=O)[C@@H](CC(=O)[C@@H](NC(=O)c1cc(C)on1)C(C)C)Cc1ccc(F)cc1", "note": "[AG7088]", "values": [{"measurement": "inhibition of RV and other picornaviral 3Cpro", "setting": "[1]", "result": "potent inhibitor"}, {"measurement": "inhibition of SARS-CoV 3CLpro", "setting": "SARS-CoV 3CLpro", "result": "did not inhibit; also recorded: failed to inhibit"}]}
